Residue numbers refer to the chain shown, from its start. Activity calls are given as the source filed them. The rule behind the calls is not given here.
Tests used:
[1] = tested on: Transglutaminase 2 (Homo sapiens); experiment: Inhibition of human recombinant thioredoxin-mediated TG2 activation expressed in T84 cells assessed as blockade of 5-biotinamidopentylamine incorporation at 25 uM after 3 hrs by fluorescence microscopic analysis
[2] = target: T1, Thioredoxin (Homo sapiens, UniProt P10599); experiment: Inhibition of human recombinant thioredoxin-mediated TG2 activation expressed in T84 cells assessed as blockade of 5-biotinamidopentylamine incorporation after 3 hrs by streptavidin-HRP/TMB absorbance assay
T1 sequence (P10599 whole entry): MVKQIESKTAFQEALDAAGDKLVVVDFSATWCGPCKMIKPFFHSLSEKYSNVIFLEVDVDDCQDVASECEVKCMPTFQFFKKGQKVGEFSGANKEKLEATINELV

[3] = tested on: T2, Thioredoxin (Homo sapiens), P10599 [W31A]; experiment: Inhibition of human thioredoxin W31A mutant
T2 sequence (whole entry): T1 sequence (P10599 whole entry) with W31A

[4] = target: T3, Thioredoxin (Homo sapiens) (UniProt P10599); experiment: Inhibition of wild type human thioredoxin by insulin turbidity assay; conditions: concentration not given here
T3 sequence (whole entry): T1 sequence (P10599 whole entry)

Compound: O=C(NC[C@@H]1CC(Br)=NO1)[C@@H]1CCCN1C(=O)OCc1cnc2ccccc2c1
- inhibition [1]: Active

Compound: CCC(C)SSc1ncc[nH]1 (centres undefined) [PX-12]
- IC50 [2]: 2.11 µM

Compound: CCC(C)SSc1nc2ccccc2[nH]1 (centres undefined)
- Ratio [3]: 1.42 µM⁻¹ min⁻¹
- inhibition [4]: 78%
